Reference: US20140221499A1, “NOVEL RODENT CONTROL AGENTS AND USES THEREOF” (priority 2011, published 2014)

What was measured:
[1] = molecular target: T1, rTAAR9 (Rattus norvegicus, UniProt Q923Y6); assay: CRE-SEAP reporter gene assay in HEK293 cells transfected with rTAAR9; assay type: cell-based; settings: FIG. 11A, functional with or without 'Rho tag', EC50 ± s.e.m., 4-parameter Hill equation
T1 construct: Full Taar coding regions were cloned into pcDNA3.1; expressed in transfected cells; host or cells: HEK293
T1 sequence (Q923Y6 1-338): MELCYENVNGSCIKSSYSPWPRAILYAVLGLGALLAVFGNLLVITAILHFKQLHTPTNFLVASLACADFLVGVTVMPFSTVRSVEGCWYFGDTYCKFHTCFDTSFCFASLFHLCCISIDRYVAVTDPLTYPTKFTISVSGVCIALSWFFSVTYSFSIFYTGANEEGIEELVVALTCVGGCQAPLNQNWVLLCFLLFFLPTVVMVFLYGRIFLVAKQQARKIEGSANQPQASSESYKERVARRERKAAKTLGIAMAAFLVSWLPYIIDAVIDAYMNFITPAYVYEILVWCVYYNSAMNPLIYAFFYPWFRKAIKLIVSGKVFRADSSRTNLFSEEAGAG
Procedure: (§1) FIG. 11 illustrates the dose-dependent responses of TAARs to amines. HEK293 cells were cotransfected with plasmids encoding CRE-SEAP and rTAARs (a) or mTAARs (b), incubated with concentrations of ligands indicated, and assayed for reporter activity (triplicates±s.d.). EC50 values (±s.e.m, bottom right) were calculated using SigmaPlot (Systat Software) and a 4-parameter Hill equation.
(§2) The following mixes (10 μM of each indicated compounds) were tested for their ability to activate rat TAARs. Mix 1: butylamine, dibutylamine, hexylamine. Mix 2: 2-aminopentane, isoamylamine, isobutylamine, isopropylamine. Mix 3: N,N-dimethylcyclohexylamine, 1-methylindole, tryptamine, phenylethylamine. Mix 4: indole, 1-methylpyrrolidine, 1-methylpiperidine, pyrrolidine. […]
(§3) Full Taar coding regions were cloned into pcDNA3.1-(Invitrogen) with or without a 5′ DNA extension of 69 bp encoding the first 20 amino acids of bovine rhodopsin followed by a cloning linker ([…]). […] Fluorescence was measured on an EnVision plate reader (Perkin Elmer) and SEAP activity graphed as relative fluorescence of a phosphatase substrate.
(§4) Here, we set out to identify agonists for additional mouse and rat TAARs. […] Transfected cells were incubated with test chemicals, and phosphatase activity was quantified with a fluorescent substrate as a reporter for TAAR activation. […]

[2] = molecular target: T2, rTAAR8c (Rattus norvegicus, UniProt Q923Y0); assay: CRE-SEAP reporter gene assay in HEK293 cells transfected with rTAAR8c; assay type: cell-based; settings: FIG. 11A, functional with or without 'Rho tag', EC50 ± s.e.m., 4-parameter Hill equation
T2 construct: Full Taar coding regions were cloned into pcDNA3.1; expressed in transfected cells; host or cells: HEK293
T2 sequence (Q923Y0 1-344): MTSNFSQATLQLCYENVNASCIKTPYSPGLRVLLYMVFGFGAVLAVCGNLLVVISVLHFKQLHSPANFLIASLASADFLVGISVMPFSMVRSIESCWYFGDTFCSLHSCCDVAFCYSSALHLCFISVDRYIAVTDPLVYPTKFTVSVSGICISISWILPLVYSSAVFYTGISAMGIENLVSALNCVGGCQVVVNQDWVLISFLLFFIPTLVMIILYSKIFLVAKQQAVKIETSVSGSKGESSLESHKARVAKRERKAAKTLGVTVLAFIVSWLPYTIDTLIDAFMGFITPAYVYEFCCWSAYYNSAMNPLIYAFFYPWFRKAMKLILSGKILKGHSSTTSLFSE
Procedure: as §1, §2, §3, §4

[3] = molecular target: T3, mTAAR7b (Mus musculus, UniProt Q5QD11); assay: CRE-SEAP reporter gene assay in HEK293 cells transfected with mTAAR7b; assay type: cell-based; set-up: Full Taar coding regions were cloned into pcDNA3.1; expressed in transfected cells; host or cells: HEK293; settings: FIG. 11B, functional with or without 'Rho tag', EC50 ± s.e.m., 4-parameter Hill equation
T3 sequence (Q5QD11 1-358): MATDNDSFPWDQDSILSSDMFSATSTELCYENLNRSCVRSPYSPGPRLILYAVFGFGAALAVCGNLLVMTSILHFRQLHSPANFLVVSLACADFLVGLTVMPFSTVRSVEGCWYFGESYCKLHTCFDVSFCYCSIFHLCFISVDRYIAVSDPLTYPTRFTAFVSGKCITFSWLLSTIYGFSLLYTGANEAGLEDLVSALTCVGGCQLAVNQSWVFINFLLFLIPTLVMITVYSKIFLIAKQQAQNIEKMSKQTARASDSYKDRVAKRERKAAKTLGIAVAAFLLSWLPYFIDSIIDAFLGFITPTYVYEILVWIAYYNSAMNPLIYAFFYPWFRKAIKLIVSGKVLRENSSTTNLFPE
Procedure: as §1
Chemicals tested for the ability to activate mouse TAARs include those previously described (Liberles, S. D., and Buck, L. B. (2006) A second class of chemosensory receptors in the olfactory epithelium, Nature 442, 645-650), as well as the following mixes (5 μM of each indicated compounds). Mix 1: N,N-dimethyl-cyclohexylamine, N,N-dimethyl-phenylethylamine, creatinine, taurine. […]
as §3, §4

[4] = molecular target: T4, rTAAR7h (Rattus norvegicus, UniProt Q923Y4); assay: CRE-SEAP reporter gene assay in HEK293 cells transfected with rTAAR7h; assay type: cell-based; set-up: Full Taar coding regions were cloned into pcDNA3.1; expressed in transfected cells; host or cells: HEK293; settings: FIG. 11A, functional with or without 'Rho tag', EC50 ± s.e.m., 4-parameter Hill equation
T4 sequence (Q923Y4 1-358): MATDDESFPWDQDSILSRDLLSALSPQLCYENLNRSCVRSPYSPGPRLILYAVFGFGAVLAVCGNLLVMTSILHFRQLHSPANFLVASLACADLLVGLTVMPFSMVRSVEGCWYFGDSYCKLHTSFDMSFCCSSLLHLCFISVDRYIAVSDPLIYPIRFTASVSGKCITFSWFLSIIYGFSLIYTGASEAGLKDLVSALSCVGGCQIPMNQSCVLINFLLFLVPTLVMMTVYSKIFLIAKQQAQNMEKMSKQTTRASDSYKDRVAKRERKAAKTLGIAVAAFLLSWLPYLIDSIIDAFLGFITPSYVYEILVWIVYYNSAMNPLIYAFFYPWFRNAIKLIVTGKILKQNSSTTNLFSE
Procedure: as §1, §2, §3, §4

[5] = molecular target: T5, TAAR5 (Mus musculus, UniProt Q5QD14); settings: cited from earlier work
T5 sequence (Q5QD14 1-337): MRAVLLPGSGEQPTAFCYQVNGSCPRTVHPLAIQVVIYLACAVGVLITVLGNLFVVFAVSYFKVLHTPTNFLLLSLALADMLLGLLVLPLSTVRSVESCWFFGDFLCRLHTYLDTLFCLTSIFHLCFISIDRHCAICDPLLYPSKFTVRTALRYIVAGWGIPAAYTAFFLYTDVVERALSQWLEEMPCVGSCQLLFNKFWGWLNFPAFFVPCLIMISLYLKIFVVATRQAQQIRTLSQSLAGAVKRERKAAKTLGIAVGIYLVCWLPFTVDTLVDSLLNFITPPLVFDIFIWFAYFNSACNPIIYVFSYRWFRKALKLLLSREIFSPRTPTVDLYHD

Which EC50 [1] does the source give for `CN1CCCCC1` [1-methylpiperidine] here?
Its EC50 is 18.3 ± 0.4 µM.

And the EC50 [2]?
Its EC50 is 80 ± 20 nM.

Which EC50 [3] does the source give for `CCCCN(C)C` [N,N-DIMETHYLBUTYLAMINE, N,N-dimethylbutylamine] here?
Its EC50 is 20.1 ± 8.9 µM.

With `CCCCCCCCN(C)C` [N,N-DIMETHYLOCTYLAMINE, N,N-dimethyloctylamine] as the compound, how does the EC50 [4] read?
The EC50 was 12.7 ± 6.2 µM.

With `CN(C)C` [Trimethylamine, trimethylamine] as the compound, how does the TAAR5 activation [5] read?
Its TAAR5 activation is “activates TAAR5”.
